Tests used:
[1] = molecular target: T1, CYP2C19 (Homo sapiens, UniProt P33261); assay: In-vitro biological degradation by cytochrome P450 enzymes: CYP2C19; format: in vitro ADME
T1 construct: expressed in transfected cells; host or cells: cell line named only by the CYP it carries

[2] = molecular target: T2, CYP2D6 (Homo sapiens, UniProt P10635); assay: In-vitro biological degradation by cytochrome P450 enzymes: CYP2D6; format: in vitro ADME
T2 construct: expressed in transfected cells; host or cells: cell line named only by the CYP it carries

[3] = molecular target: T3, CYP1A1 (Homo sapiens, UniProt P04798); assay: In-vitro biological degradation by cytochrome P450 enzymes: CYP1A1; format: in vitro ADME; conditions: 37° C., pH 7.4, 3 mM NADPH, protein 0.5 mg/mL; FIG. 1
T3 construct: expressed in transfected cells; host or cells: cell line named only by the CYP it carries
T3 sequence (P04798 1-512): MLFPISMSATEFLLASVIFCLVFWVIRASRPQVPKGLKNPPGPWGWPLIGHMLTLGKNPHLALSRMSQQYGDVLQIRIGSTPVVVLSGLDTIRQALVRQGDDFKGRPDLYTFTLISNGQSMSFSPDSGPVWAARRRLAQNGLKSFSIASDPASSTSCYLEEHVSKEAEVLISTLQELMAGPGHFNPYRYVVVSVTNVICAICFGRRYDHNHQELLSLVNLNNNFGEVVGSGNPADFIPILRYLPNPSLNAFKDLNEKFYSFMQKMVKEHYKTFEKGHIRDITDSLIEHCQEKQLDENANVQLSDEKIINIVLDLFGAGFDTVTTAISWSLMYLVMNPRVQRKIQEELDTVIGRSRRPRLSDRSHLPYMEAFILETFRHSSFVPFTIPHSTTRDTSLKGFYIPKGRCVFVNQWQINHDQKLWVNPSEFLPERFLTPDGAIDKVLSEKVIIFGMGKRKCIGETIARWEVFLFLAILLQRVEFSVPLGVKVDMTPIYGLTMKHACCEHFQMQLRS

[4] = molecular target: T4, CYP1A2 (Homo sapiens, UniProt P05177); assay: In-vitro biological degradation by cytochrome P450 enzymes: CYP1A2; format: in vitro ADME; conditions: 37° C., pH 7.4, 3 mM NADPH, protein 0.5 mg/mL; FIG. 1
T4 construct: expressed in transfected cells; host or cells: cell line named only by the CYP it carries
T4 sequence (P05177 1-516): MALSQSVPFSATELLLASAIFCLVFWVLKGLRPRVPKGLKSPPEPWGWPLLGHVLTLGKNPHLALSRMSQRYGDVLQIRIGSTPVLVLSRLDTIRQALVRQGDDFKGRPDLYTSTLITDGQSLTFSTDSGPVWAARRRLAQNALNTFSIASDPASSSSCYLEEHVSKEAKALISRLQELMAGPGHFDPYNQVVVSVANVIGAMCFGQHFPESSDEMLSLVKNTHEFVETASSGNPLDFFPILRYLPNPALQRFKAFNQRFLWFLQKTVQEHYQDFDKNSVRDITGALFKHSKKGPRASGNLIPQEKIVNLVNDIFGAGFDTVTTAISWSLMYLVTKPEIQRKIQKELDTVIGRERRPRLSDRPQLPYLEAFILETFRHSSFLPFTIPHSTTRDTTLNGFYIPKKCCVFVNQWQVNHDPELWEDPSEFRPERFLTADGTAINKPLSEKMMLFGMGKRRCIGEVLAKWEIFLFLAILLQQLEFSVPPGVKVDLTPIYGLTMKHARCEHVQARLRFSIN

[5] = molecular target: T5, CYP2C8 (Homo sapiens, UniProt P10632); assay: In-vitro biological degradation by cytochrome P450 enzymes: CYP2C8; format: in vitro ADME; conditions: 37° C., pH 7.4, 3 mM NADPH, protein 0.5 mg/mL; FIG. 1
T5 construct: expressed in transfected cells; host or cells: cell line named only by the CYP it carries
T5 sequence (P10632 1-490): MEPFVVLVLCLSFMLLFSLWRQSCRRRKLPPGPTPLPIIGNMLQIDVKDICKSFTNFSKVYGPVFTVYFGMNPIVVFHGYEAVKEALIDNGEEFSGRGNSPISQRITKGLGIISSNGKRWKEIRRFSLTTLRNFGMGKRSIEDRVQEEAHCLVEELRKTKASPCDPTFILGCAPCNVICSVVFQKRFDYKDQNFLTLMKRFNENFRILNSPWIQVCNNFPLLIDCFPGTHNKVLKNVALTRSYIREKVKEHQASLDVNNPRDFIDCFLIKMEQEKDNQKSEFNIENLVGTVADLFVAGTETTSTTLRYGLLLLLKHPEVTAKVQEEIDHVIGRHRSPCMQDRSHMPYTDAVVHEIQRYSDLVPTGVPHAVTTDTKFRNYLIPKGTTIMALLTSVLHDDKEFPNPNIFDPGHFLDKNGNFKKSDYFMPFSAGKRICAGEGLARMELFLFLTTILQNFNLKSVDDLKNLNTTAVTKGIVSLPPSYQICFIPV

[6] = molecular target: T6, CYP2E1 (Homo sapiens, UniProt P05181); assay: In-vitro biological degradation by cytochrome P450 enzymes: CYP2E1; format: in vitro ADME; conditions: 37° C., pH 7.4, 3 mM NADPH, protein 0.5 mg/mL; FIG. 1
T6 construct: expressed in transfected cells; host or cells: cell line named only by the CYP it carries

[7] = molecular target: T7, CYP3A4 (Homo sapiens, UniProt P08684); assay: In-vitro biological degradation by cytochrome P450 enzymes: CYP3A4; format: in vitro ADME; conditions: 37° C., pH 7.4, 3 mM NADPH, protein 0.5 mg/mL; FIG. 1
T7 construct: expressed in transfected cells; host or cells: cell line named only by the CYP it carries

[8] = strong first-pass effect; background statement; cited from earlier work
[9] = relative to tolperisone, FIG. 3
[10] = 37° C., pH 7.4, 3 mM NADPH, protein 0.5 mg/mL, LC/MS/MS, FIG. 1
[11] = primary metabolites formed by hydroxylation, FIG. 2

T2 sequence (P10635 whole entry): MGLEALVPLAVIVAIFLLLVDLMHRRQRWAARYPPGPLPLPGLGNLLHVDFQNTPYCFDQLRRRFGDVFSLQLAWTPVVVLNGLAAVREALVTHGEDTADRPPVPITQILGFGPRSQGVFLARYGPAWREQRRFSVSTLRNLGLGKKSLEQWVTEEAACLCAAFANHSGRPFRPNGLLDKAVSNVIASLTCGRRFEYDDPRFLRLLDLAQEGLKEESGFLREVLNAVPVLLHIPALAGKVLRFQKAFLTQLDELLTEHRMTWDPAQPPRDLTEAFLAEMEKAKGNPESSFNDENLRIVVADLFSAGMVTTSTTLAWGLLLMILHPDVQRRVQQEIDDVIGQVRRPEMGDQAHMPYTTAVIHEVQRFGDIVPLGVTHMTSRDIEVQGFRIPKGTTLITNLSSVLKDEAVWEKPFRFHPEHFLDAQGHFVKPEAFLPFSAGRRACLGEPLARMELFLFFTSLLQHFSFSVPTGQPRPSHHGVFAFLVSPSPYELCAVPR
T1 sequence (P33261 whole entry): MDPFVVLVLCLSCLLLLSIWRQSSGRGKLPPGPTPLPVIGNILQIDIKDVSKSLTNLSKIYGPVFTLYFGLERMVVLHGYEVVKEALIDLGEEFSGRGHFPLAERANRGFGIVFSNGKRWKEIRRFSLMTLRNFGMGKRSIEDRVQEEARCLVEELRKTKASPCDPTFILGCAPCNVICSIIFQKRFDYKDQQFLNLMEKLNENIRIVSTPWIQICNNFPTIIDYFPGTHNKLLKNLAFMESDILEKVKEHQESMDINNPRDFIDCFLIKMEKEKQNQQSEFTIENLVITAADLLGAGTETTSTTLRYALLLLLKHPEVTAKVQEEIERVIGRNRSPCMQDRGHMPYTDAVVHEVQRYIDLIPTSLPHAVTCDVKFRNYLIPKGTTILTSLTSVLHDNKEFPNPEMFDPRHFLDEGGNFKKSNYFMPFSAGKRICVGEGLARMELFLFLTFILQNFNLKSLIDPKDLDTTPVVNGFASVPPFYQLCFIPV
T6 sequence (P05181 whole entry): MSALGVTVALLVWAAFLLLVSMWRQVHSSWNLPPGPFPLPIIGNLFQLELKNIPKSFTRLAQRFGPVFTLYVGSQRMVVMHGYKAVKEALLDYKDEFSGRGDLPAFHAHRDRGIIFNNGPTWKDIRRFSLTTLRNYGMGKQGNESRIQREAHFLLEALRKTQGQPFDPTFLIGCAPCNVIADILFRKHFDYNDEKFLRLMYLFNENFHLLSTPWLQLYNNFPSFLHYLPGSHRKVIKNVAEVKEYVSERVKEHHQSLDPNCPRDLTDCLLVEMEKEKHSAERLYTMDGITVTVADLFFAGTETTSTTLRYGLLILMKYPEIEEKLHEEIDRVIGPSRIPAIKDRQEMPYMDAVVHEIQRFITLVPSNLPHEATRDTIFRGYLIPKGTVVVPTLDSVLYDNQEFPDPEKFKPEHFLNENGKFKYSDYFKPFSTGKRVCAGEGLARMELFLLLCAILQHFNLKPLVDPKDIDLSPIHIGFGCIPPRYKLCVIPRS
T7 sequence (P08684 whole entry): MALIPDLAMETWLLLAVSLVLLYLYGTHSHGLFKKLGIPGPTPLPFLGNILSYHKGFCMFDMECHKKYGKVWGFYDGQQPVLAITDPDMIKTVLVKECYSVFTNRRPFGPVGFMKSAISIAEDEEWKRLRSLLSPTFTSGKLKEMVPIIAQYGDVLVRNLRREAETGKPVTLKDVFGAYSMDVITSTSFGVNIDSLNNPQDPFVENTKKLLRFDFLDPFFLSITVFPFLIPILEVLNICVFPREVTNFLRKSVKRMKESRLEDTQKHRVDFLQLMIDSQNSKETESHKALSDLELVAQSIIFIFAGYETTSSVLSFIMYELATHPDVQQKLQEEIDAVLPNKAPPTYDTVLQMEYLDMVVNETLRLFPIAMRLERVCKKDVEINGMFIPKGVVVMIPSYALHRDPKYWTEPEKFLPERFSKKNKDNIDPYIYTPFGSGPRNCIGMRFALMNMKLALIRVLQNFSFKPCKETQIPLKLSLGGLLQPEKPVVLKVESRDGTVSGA

| factor by which enzymatic hydroxylation by CYP2C19 is retarded in comparison to tolperisone [1, 9] | factor by which enzymatic hydroxylation by CYP2D6 is retarded in comparison to tolperisone [2, 9] | enzymatic degradation (decrease in tolperisone concentration over time) by CYP2C19 [1, 10] | enzymatic degradation (decrease in tolperisone concentration over time) by CYP2D6 [2, 10] | contribution to biological degradation by CYP1A1 [3] | contribution to biological degradation by CYP1A2 [4] | contribution to biological degradation by CYP2C8 [5] | contribution to biological degradation by CYP2E1 [6] | contribution to biological degradation by CYP3A4 [7] | SMILES | formation of hydroxy metabolites by CYP2C19 [1, 11] | formation of hydroxy metabolites by CYP2D6 [2, 11] | fraction of the administered dose found unchanged in the blood [8] |
| --- | --- | --- | --- | --- | --- | --- | --- | --- | --- | --- | --- | --- |
| 10 | 10 | – | – | – | – | – | – | – | [2H]c1c([2H])c(C([2H])([2H])[2H])c([2H])c([2H])c1C(=O)C(C)CN1CCCCC1 (stereo not drawn) [I, 1-[4-(trideuteromethyl)tetradeuterophenyl]-2-methyl-3-piperidin-1-yl-1-propanone] | – | – | – |
| – | – | transformed above all | transformed above all | contribute at most insignificantly | contribute at most insignificantly | contribute at most insignificantly | contribute at most insignificantly | contribute at most insignificantly | Cc1ccc(C(=O)C(C)CN2CCCCC2)cc1 (stereo not drawn) [tolperisone] | to the same extent as the substrate is degraded | to the same extent as the substrate is degraded | one-fifth |

From patent US7307091B2, “Deuterated 3-piperidinopropiophenone and medicaments containing said compounds” (BDD Berolina Drug Development GmbH, priority 2001, dated 2007)
